Measurements reported in patent US4029801A, “Pharmaceutical compositions and methods of treating hypertension” (priority 1970, dated 1977).

Key:
[1] = test system: blood pressure; assay: Tests for action on the cardiovascular system: hypotensive activity (activity in method 1, rats or cats, or method 2), reported in words; assay type: in vivo, rat, cat; conditions: standard test procedure, result in words
Method in brief: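 Method 1: pentobarbitone-anaesthetised cats, test compounds i.v. at 0.1-25.6 mg/kg, aortic blood pressure, heart rate and left ventricular pressure recorded. Method 2: renal hypertensive rats (figure-8 ligature plus contralateral nephrectomy, 6 weeks), dosed IP or orally; systolic pressure by tail plethysmography before and 2 and 24 h post-dose versus controls.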

[2] = test system: α-adrenoceptor; assay: α-Adrenoceptor antagonism on the guinea pig aortic strip; conditions: for α-blockade pA2: Table 4
Description: Carried out on the guinea pig aortic strip [Furchgott and Bhadrakom (1953) J. Pharmac. exp. Ther. 108, 129-143] by the method of Alps et al [Br. J. Pharmac. 1972 44, 52-62].

[3] = target: T1, histamine (Cavia porcellus, UniProt P31389); assay: Antihistamine activity by the method of Alps et al.
T1 construct: from tissue
T1 sequence (P31389 whole entry): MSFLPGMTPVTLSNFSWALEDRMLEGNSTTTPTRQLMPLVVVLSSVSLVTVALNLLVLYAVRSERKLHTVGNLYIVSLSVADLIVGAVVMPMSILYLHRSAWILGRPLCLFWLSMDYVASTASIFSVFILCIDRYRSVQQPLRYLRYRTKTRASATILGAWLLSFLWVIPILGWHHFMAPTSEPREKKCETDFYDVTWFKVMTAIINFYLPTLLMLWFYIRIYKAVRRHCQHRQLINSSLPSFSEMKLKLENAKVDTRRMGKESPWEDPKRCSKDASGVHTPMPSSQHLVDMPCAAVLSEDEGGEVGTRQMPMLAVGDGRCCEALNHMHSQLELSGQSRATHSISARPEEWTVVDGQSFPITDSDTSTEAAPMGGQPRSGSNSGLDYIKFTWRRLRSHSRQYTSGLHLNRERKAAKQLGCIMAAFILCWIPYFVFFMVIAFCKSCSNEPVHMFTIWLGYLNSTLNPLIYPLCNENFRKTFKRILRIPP

[4] = test system: oxotremorine; assay: Antioxotremorine activity; assay type: in vivo; conditions: result in words
[5] = test system: blood pressure and heart rate; assay: Method 1 (rat): hypotensive activity in anaesthetised rats, i.v.; conditions: Rattus norvegicus, iv, 0.25 h, read-out: Hypotensive Activity
Description: Rats were anaesthetised with pentobarbitone sodium (60 mg/kg) and the jugular vein, trachea and carotid artery were cannulated. […] A decrease in heart rate of more than 30% from control values was considered to be significant bradycardia.

[6] = Anti-convulsant activity; assay type: in vivo; conditions: result in words
[7] = Acute toxicity (LD50) in the mouse; conditions: in vivo
[8] = test system: mouse; assay: Acute toxicity (LD50) in the mouse; conditions: result in words

| SMILES | hypotensive activity [1] | α-blockade pA2 [2] | antihistamine activity ([3]; result in words) | antioxotremorine activity [4] | minimal effective dose [5] [mg/kg] | anti-convulsant activity [6] | α-adrenoceptor antagonism ([2]; result in words) | Kb ([3]; Table 4, read-out: Antihistamine pA2 (converted)) [nM] | LD50 ([7]; ip) [mg/kg] | LD50 at 24 h ([7]; ip) [mg/kg] | LD50 ([7]; po) [mg/kg] | toxicity [8] |
| --- | --- | --- | --- | --- | --- | --- | --- | --- | --- | --- | --- | --- |
| O=C(NC1CCN(CC(O)c2ccccc2)CC1)c1ccccc1 (centres unmarked) [Example 20, 1-(2-Hydroxy-2-phenylethyl)-4-benzamidopiperidine] | hypotensive activity | 6.6 | antihistamine | antioxotremorine activity | 6.4 to 12.8 | – | – | – | – | – | – | – |
| O=C(NC1CCN(CCc2ccc(Cl)cc2)CC1)c1ccccc1 [Example 48, 4-Benzamido-1-[2-(p-chlorophenyl)ethyl]piperidine] | hypotensive activity | – | – | – | 6.4 to 12.8 | anti-convulsant activity | – | – | – | – | – | – |
| O=C(CCCN1CCC(NC(=O)c2ccccc2)CC1)c1ccc(O)cc1 [Example 63, 4-Benzamido-1-[4-(4-hydroxyphenyl)-4-oxobutyl]piperidine] | good hypotensive activity | 7.0 | – | – | 25.6 | – | α-adrenoceptor antagonism | 1.26 | 1630 | > 4000 | > 4000 | remarkably low toxicity |
